Eight compounds from patent US7307095B2, “Inhibitors of cathepsin S” (IRM LLC, priority 2003, dated 2007) can be followed below.

Some results are limits rather than exact numbers.

What all share (type): biochemical
For one assay, the target named is Cathepsin L (Homo sapiens, UniProt P07711). Nature of the assay: Cathepsin L inhibition, fluorogenic peptide substrate kinetic assay (selectivity ratio vs cathepsin S). The settings on record: ratio of cathepsin L inhibition constant to cathepsin S inhibition constant. The method, then:
(§1) The optimal substrate for cathepsin L, acetyl-histidine-lysine-phenylalanine-lysine-amino carbamoyl coumarin, was identified from screening a combinatorial library of fluorogenic peptide substrates (Harris, J. L., B. J. Backes, et al. Proc Natl Acad Sci USA 2000, 97(14), 7754-9). Kinetic measurements are performed in a total reaction volume of 30 μl in 384-well microtiter plates. […] Control reactions in the absence of inhibitor are performed in replicates of 24. The reactions are initiated by adding the substrate, acetyl-histidine-lysine-phenylalanine-lysine-amino carbamoyl coumarin, to a final concentration of 20 μM. The rate of substrate hydrolysis is measured by monitoring the increase in fluorescence at an excitation wavelength of 380 nm and an emission wavelength of 450 nm that results from cleavage of the aniline bond in the substrate by the enzyme. The apparent inhibition constants for the compounds are determined from the enzyme progress curves ([…]. Elrod, et al. Anal Biochem 2000, 286(1), 45-50) and are then used to calculate the inhibition constants for competitive inhibitors. Selectivity for cathepsin S in the presence of cathepsin isozymes was determined by the ratio of the cathepsin isozyme inhibition constant of a compound of the present invention to the cathepsin S inhibition constant of the same compound.

A further assay addresses T1, Cathepsin K (Homo sapiens, UniProt P43235).
T1 sequence (P43235 115-329): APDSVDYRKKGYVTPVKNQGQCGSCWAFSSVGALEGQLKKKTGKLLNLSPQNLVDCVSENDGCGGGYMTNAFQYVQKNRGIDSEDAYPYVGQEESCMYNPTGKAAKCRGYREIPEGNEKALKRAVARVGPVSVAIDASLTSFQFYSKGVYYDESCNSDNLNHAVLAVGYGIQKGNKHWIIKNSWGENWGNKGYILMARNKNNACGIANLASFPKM
Description: Cathepsin K inhibition, fluorogenic peptide substrate kinetic assay (selectivity ratio vs cathepsin S). The settings on record: ratio of cathepsin K inhibition constant to cathepsin S inhibition constant. The method, then: as §1, with “Kinetic” for “The optimal substrate for cathepsin L, acetyl-histidine-lysine-phenylalanine-lysine-amino carbamoyl coumarin, was identified from screening a combinatorial library of fluorogenic peptide substrates (Harris, J. L., B. J. Backes, et al. Proc Natl Acad Sci USA 2000, 97(14), 7754-9). Kinetic”, “substrate, acetyl-lysine-histidine-proline-lysine-amino” for “substrate, acetyl-histidine-lysine-phenylalanine-lysine-amino”, “of 40” for “of 20”

Another assay deals with Cathepsin S (Homo sapiens, UniProt P25774). Nature of the assay: Cathepsin S inhibition, fluorogenic peptide substrate kinetic assay. The settings on record: Cathepsin S inhibition constant; read-out: Ki Cat. S. On the procedure:
The optimal substrate for cathepsin S, acetyl-histidine-proline-valine-lysine-amino carbamoyl coumarin, was identified from screening a combinatorial library of fluorogenic peptide substrates (Harris, J. L., B. J. Backes, et al. Proc Natl Acad Sci USA 2000, 97(14), 7754-9). Kinetic measurements are performed in a total reaction volume of 30 μl in 384-well microtiter plates. […] Control reactions in the absence of inhibitor are performed in replicates of 24. The reactions are initiated by adding the substrate, acetyl-histidine-proline-valine-lysine-amino carbamoyl coumarin, to a final concentration of 50 μM. The rate of substrate hydrolysis is measured by monitoring the increase in fluorescence at an excitation wavelength of 380 nm and an emission wavelength of 450 nm that results from cleavage of the aniline bond in the substrate by the enzyme. The apparent inhibition constants for the compounds are determined from the enzyme progress curves (Kuzmic, P., K. C. Elrod, et al. Anal Biochem 2000, 286(1), 45-50) and are then used to calculate the inhibition constants for competitive inhibitors.

Another assay has as its target Cathepsin B (Homo sapiens, UniProt P07858). Description: Cathepsin B inhibition, fluorogenic peptide substrate kinetic assay (selectivity ratio vs cathepsin S). The settings on record: ratio of cathepsin B inhibition constant to cathepsin S inhibition constant. The method, then:
as §1, with “Kinetic” for “The optimal substrate for cathepsin L, acetyl-histidine-lysine-phenylalanine-lysine-amino carbamoyl coumarin, was identified from screening a combinatorial library of fluorogenic peptide substrates (Harris, J. L., B. J. Backes, et al. Proc Natl Acad Sci USA 2000, 97(14), 7754-9). Kinetic”, “substrate, acetyl-histidine-proline-valine-lysine-amino” for “substrate, acetyl-histidine-lysine-phenylalanine-lysine-amino”, “of 10” for “of 20”

Sequence of Cathepsin L (P07711 114-333, species assumed): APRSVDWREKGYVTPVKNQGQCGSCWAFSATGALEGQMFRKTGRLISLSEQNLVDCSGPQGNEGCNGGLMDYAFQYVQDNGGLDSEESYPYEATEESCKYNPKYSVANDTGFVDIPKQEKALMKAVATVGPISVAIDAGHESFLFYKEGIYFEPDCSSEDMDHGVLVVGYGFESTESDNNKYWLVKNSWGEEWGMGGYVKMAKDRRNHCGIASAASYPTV
Sequence of Cathepsin S (P25774 115-331, species assumed): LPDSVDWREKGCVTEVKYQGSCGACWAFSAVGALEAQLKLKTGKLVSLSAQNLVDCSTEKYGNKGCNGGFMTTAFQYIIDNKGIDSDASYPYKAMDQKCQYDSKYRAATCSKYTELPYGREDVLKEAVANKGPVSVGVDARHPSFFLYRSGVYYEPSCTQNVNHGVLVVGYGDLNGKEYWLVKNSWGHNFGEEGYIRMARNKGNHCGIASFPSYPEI

As to `CC(C)(C)C[C@H](Nc1nc2ccccc2o1)C(=O)N[C@@H](CC(=O)OC(C)(C)C)CN1CCc2cc(F)ccc21` [Example 3, 3-(S)-[2-(S)-(Benzooxazol-2-ylamino)-4,4-dimethyl-pentanoylamino]-4-(5-fluoro-2,3-dihydro-indol-1-yl)-butyric acid tert-butyl ester], the “Selectivity for Cat. S over Cat. L” value at Cathepsin L is given as “++ (++, >100)”. The “Selectivity for Cat. S over Cat. K” value on Cathepsin K is listed as “++ (++, >100)”. Further, the Ki at Cathepsin S is below 1000 nM. In addition, the “Selectivity for Cat. S over Cat. B” value on Cathepsin B is on record as “++ (++, >100)”.

With `COc1ccc(NCCNC(=O)[C@H](CC2CCCCC2)Nc2nc3ccccc3s2)cc1` [Example 17, 2-(S)-(Benzothiazol-2-ylamino)-3-cyclohexyl-N-[2-(4-methoxy-phenylamino)-ethyl]-propionamide], the “Selectivity for Cat. S over Cat. L” value at Cathepsin L was “++ (++, >100)”. Also, the “Selectivity for Cat. S over Cat. K” value at Cathepsin K is recorded as “+++ (+++, >1000)”. On Cathepsin S, the Ki was below 100 nM. For the same compound, the “Selectivity for Cat. S over Cat. B” value on Cathepsin B was “+++ (+++, >1000)”.

Take `CC(C)(C)OC(=O)C[C@@H](CN1CCc2cc(F)ccc21)NC(=O)[C@H](CC1CCCCC1)Nc1nc2ccccc2o1` [Example 9, 3-(S)-[2-(S)-(Benzooxazol-2-ylamino)-3-cyclohexyl-propionylamino]-4-(5-fluoro-2,3-dihydro-indol-1-yl)-butyric acid tert-butyl ester]: on Cathepsin L, the “Selectivity for Cat. S over Cat. L” value is “++ (++, >100)”. In addition, the “Selectivity for Cat. S over Cat. K” value at Cathepsin K is recorded as “++ (++, >100)”. In addition, the Ki on Cathepsin S is below 100 nM. Further, at Cathepsin B, the “Selectivity for Cat. S over Cat. B” value was “+++ (+++, >1000)”.

Take `O=C(N[C@H](CNc1ccc(F)cc1)COCc1ccccc1)[C@H](CC1CCCCC1)Nc1nc2ccccc2o1` [Example 11, 2-(S)-(Benzooxazol-2-ylamino)-N-[1-(R)-benzyloxymethyl-2-(4-fluoro-phenylamino)-ethyl]-3-cyclohexyl-propionamide]: the “Selectivity for Cat. S over Cat. L” value at Cathepsin L is recorded as “++ (++, >100)”. Besides, the “Selectivity for Cat. S over Cat. K” value at Cathepsin K was “++ (++, >100)”. Besides, the inhibition constant Ki at Cathepsin S is below 100 nM. The “Selectivity for Cat. S over Cat. B” value at Cathepsin B is reported as “++ (++, >100)”.

As for `CC(C)(C)C[C@H](Nc1cnccn1)C(=O)NCCN1CCc2cc(F)ccc21` [Example 18, (S)-4,4-Dimethyl-2-(pyrazin-2-ylamino)-pentanoic acid [2-(5-fluoro-2,3-dihydro-indol-1-yl)-ethyl]-amide], on Cathepsin L, the “Selectivity for Cat. S over Cat. L” value was “+ (+, >10)”. Further, the “Selectivity for Cat. S over Cat. K” value at Cathepsin K was “+ (+, >10)”. The Ki at Cathepsin S was below 10000 nM. Also, the “Selectivity for Cat. S over Cat. B” value at Cathepsin B is “+ (+, >10)”.

On to `CC(C)(C)C[C@H](Nc1nc2ccccc2o1)C(=O)N[C@@H](COCc1ccccc1)CN1CCc2cc(F)ccc21` [Example 6, 2-(S)-(Benzooxazol-2-ylamino)-4,4-dimethyl-pentanoic acid (R)-[1-benzyloxymethyl-2-(5-fluoro-2,3-dihydro-indol-1-yl)-ethyl]-amide], for which the “Selectivity for Cat. S over Cat. L” value on Cathepsin L is “+++ (+++, >1000)”. The “Selectivity for Cat. S over Cat. K” value at Cathepsin K is reported as “+ (+, >10)”. Besides, the Ki at Cathepsin S is below 100 nM. Besides, the “Selectivity for Cat. S over Cat. B” value at Cathepsin B is listed as “+++ (+++, >1000)”.

Turning to `O=C(NCCN1CCc2cc(F)ccc21)[C@H](CC1CCCCC1)Nc1nc2ccccc2s1` [Example 16, 2-(S)-(Benzothiazol-2-ylamino)-3-cyclohexyl-N-[2-(5-fluoro-2,3-dihydro-indol-1-yl)-ethyl]-propionamide], on Cathepsin L, the “Selectivity for Cat. S over Cat. L” value was “+ (+, >10)”. Moreover, the “Selectivity for Cat. S over Cat. K” value at Cathepsin K is reported as “++ (++, >100)”. Further, at Cathepsin S, the Ki is below 1000 nM. For the same compound, the “Selectivity for Cat. S over Cat. B” value on Cathepsin B was “++ (++, >100)”.

With “3-(S)-[2-(S)-(6-Chloro-benzooxazol-2-ylamino)-3-cyclohexyl-propionylamino]-4-(5-fluoro-2,3-dihydro-indol-1-yl)-butyric acid tert-butyl ester [Example 28]”, the “Selectivity for Cat. S over Cat. L” value on Cathepsin L was “++ (++, >100)”. The “Selectivity for Cat. S over Cat. K” value at Cathepsin K is “++ (++, >100)”. Besides, the Ki at Cathepsin S is below 1000 nM. The “Selectivity for Cat. S over Cat. B” value at Cathepsin B is recorded as “++ (++, >100)”.

What is called Ki is a dissociation constant, usually derived from enzyme kinetics or from competition with a known ligand.
